Source: patent US20090169573A1, “T-Cell Stimulatory Peptides From The Melanoma-Associated Chondroitin Sulfate Proteoglycan And Their Use” (priority 2004, published 2009)

Tests used:
[1] = tested on: CD4+ T-cell clone 3; experiment: IFN-γ production of CD4+ T-cell clone 3 on peptide-pulsed autologous EBV-B cells (ELISA); assay type: cell-based, human
[2] = tested on: CD4+ T-cells; experiment: CD4+ T-cell induction with peptide-loaded dendritic cells, IFN-γ ELISA of microcultures; assay type: cell-based, human
[3] = tested on: CD4+ T-cell clone 25; assay type: cell-based, human; details: for recognition by clone 25 of overlapping 16-mer peptides: IFN-γ ELISA
[4] = tested on: HLA-DR11; experiment: HLA restriction of clone 25: blocking antibodies and EBV-B cell lines with different HLA class II molecules; assay type: cell-based, human; details: IFN-γ production
Description: FIG. 6: Autologous EBV-B cells (1.5×10^4) pulsed with 1 μM of the 16-mer MCSP peptide […] (SEQ ID NO:9) were used as stimulator cells in the presence of different blocking antibodies (anti-DR, anti-DQ or anti-DP). Also a control with no antibody (no Ab) was set up. All antibodies were used at a final concentration of 5 μg/ml each.
FIG. 7: 1.5×10^4 cells of several EBV-B cell lines (LP2-, LB1981-, R12-, PV6-, AC 42- and 4800-EBV) with different HLA class II molecules (HLA-DR11 positive or HLA-DR11 negative) were pulsed/loaded for 1 h with MCSP peptide […] (SEQ ID NO:9) (1 μM, white bar) and tested for recognition by the CD4^+ T cell clone. As control, the cells were pulsed in the absence of protein (black spotted bar).
(§1) 8. Determination of HLA restriction element utilized by MCSP-specific CD4^+ T-cell clone 25 and 3: To analyze the HLA restriction of CD4^+ T-cell clone 25 and 3, three monoclonal antibodies directed against anti-DR (L243; BD Biosciences, San Jose, USA), anti-DQ (CSPVL3; Immunotech) or anti-DP (B7/21; BD Biosciences, San Jose, USA) were used to test which one inhibited the recognition of antigen-presenting cells by the clone. First EBV-B cells (1.5×10^4 per round-bottomed microtiter plate well) were incubated for 1 h at 37° C., 8% CO2 in the presence of the peptide (SEQ ID NO:9 for clone 25, SEQ ID NO:48 for clone 3). The antibodies were added at a concentration of 5 ng/ml. The CD4^+ T-cell clone 25 or 3 was then added at 4×10^3 per well.
9. Determination of HLA-DR restriction element utilized by MCSP-specific CD4^+ T-cell clone 25: It was determined that cytokine secretion by the CD4^+ T-cell clone 25 occurred in response to EBV-B cells pulsed/loaded with MCSP-derived peptides restricted to HLA-DR. To further define the HLA-restriction element utilized by clone 25, additional EBV-B cell lines were used for peptide presentation as described above. In particular LP2-, LB1981-, R12-, PV6-, AC 42- and 4800-EBV which have with different HLA class II molecules (HLA-DR11 positive or HLA-DR11 negative) were used. They were pulsed/loaded for 1 h with 1 μM MCSP peptide […] […]

[5] = tested on: CD8+ T-cells; experiment: CD8+ T-cell induction with TAT-MCSP-peptide-loaded dendritic cells, IFN-γ ELISA of microcultures; details: donor 11325; long TAT-MCSP-peptide 10 μM; not with control peptide; FIG. 18
Description: After 3 weekly restimulations microcultures were tested for their IFN-γ production when stimulated with autologous EBV-B cells loaded with the TAT-MCSP peptide (SEQ ID NO:54) or a control peptide.
Aliquots of approximately 4,000 CD8^+ T-cells from each 96-well microculture were co-incubated with 15,000 stimulator cells and after 20 h the IFN-γ concentration in the supernatant was measured by ELISA. […] Bars represent standard deviations.
In order to isolate MCSP specific CD8^+ T cells, DCs were derived from monocytes of healthy donors using IL-4 and GM-CSF and loaded with the long TAT-MCSP-peptide of SEQ ID NO:54 at 20 μg/ml overnight so that potential T-cell epitopes within this peptide could be processed and presented by the cell. DCs were matured 6 h after peptide-loading by a cytokine cocktail (IL-1β, IL-6, TNF-α, PGE2) as described in Example 3 (b). Autologous CD8^+ T-cells were stimulated with protein-loaded mature DCs in 96-well-plates on the next day (FIG. 17). […]
Autologous EBV-B cells (5×10^5) were incubated for 18-20 h at 37° C. in the presence of 10 μg/ml or 20 μg/ml (compare Figure legends) of the MCSP peptide or an irrelevant control peptide as a negative control. […] After 18-20 h, supernatants were harvested and assessed for IFN-γ content using an ELISA assay with reagents from Medgenix Diagnostics-Biosource (Fleurus, Belgium). […]

[6] = tested on: HLA-DR 11; experiment: HLA restriction of clone 3: blocking antibodies and EBV-B cell lines with different HLA class II molecules; assay type: cell-based, human; details: peptide 5 μg/ml, IFN-γ production
Description: FIG. 14: Autologous EBV-B cells (15,000) pulsed with 16-mer MCSP peptide (aa 1281-1296 (SEQ ID NO:48), 5 μg/ml) were used as stimulator cells in the presence of different blocking antibodies. All antibodies were used at a final concentration of 5 μg/ml each.
FIG. 15: Several EBV-B cell lines with different HLA class II molecules were pulsed with peptide MCSP1281-1296 (SEQ ID NO:48; 5 μg/ml) and tested for recognition (at 15,000 cells per well) by the CD4^+ T cell clone (4,000 cells per well).
as §1

[7] = autologous EBV-B cells pulsed 1 μM, 1 h, FIG. 4

YARAAARQARA [SEQ ID NO:53, TAT PDT variant peptide, reference compound]
recognition by clone 3 of overlapping peptides of the 42-mer ([1]; autologous EBV-B cells pulsed 5 μg/ml, 1 h, IFN-γ ELISA, FIG. 12): not

LAQGSAMPILPANLSVETNAVGQDVSVLFRVTGALQFGELQK [SEQ ID NO:3]
number of microcultures with peptide-specific CD4+ T-cells generated ([2]; DCs loaded with the 42 mer overnight (50 μg/ml), matured by cytokine cocktail): 2
number of peptide-specific T-cell clones obtained ([2]; from microculture C2, limiting dilution): 3
IFN-γ production of clone C2/25 after stimulation with peptide-loaded autologous EBV-B-cells ([3]; 42 mer 5 μM overnight, not with EBV-B-cells with or without control peptide, FIG. 3): specific IFN-γ production

GYLVMVSRGALA [SEQ ID NO:46]
recognition of truncated peptides by clone 3 ([1]; truncated peptides derived from SEQ ID NO:42, 5 μg/ml, IFN-γ ELISA, FIG. 13): shortest peptide efficiently recognized

VGQDVSVLFRVTGALQ [SEQ ID NO:9]
efficiency of stimulation of clone 25 among overlapping 16-mer peptides [3, 7]: most efficiently
recognition by clone 25 of overlapping 16-mer peptides [3, 7]: recognized
peptide concentration found optimal to achieve CD4+ T-cell stimulation ([3]; titration experiments, clone 25): 2 µg/mL
presentation of peptide to clone 25 by EBV-B cell lines with different HLA class II typings ([4]; LP2-, LB1981-, R12-, PV6-, AC 42- and 4800-EBV pulsed 1 μM 1 h, FIG. 7): only those expressing HLA-DRB1*11 (PV6-, AC 42- and 4800-EBV) were able to present the peptide to clone 25
recognition by clone 25 of peptide-loaded autologous EBV-B cells in presence of anti-HLA-DR antibody ([4]; peptide 1 μM, FIG. 6): completely abolished
recognition by clone 25 of peptide-loaded autologous EBV-B cells in presence of antibodies against HLA-DP or HLA-DQ ([4]; peptide 1 μM, FIG. 6): no influence

YARAAARQARAPPADIVFSVKSPPSAGYLVMVSRGALADEPP [SEQ ID NO:54]
Interferon-γ production of clone F1/3 after stimulation with peptide-loaded autologous EBV-B-cells ([1]; long TAT-MCSP-peptide 10 μM overnight, not with EBV-B-cells with or without control peptide, FIG. 11): specific Interferon-γ production
number of microcultures with peptide-specific CD4+ T-cells generated ([2]; DCs loaded with long TAT-MCSP-peptide at 20 μg/ml overnight, donor 11325): 3
number of peptide-specific T-cell clones generated ([2]; from microculture F1, limiting dilution): 3
IFN-γ production of CD8+ T-cells from microcultures after stimulation with peptide-loaded autologous EBV-B-cells [5]: specific IFN-γ production

ETNAVGQDVSVLFRVT [SEQ ID NO:8]
recognition by clone 25 of overlapping 16-mer peptides [3, 7]: recognized

PPSAGYLVMVSRGALA [SEQ ID NO:42]
efficiency of stimulation of clone 3 among overlapping peptides ([1]; autologous EBV-B cells pulsed 5 μg/ml, 1 h, FIG. 12): most efficiently
recognition by clone 3 of peptide-loaded autologous EBV-B cells in presence of anti-HLA-DR antibody ([6]; FIG. 14): abolished
recognition by clone 3 of peptide-loaded autologous EBV-B cells in presence of antibodies against HLA-DP or HLA-DQ ([6]; FIG. 14): no influence
presentation of peptide to clone 3 by EBV-B cell lines with different HLA class II typings ([6]; FIG. 15): only those expressing HLA-DR 11 were able to present the peptide to clone 3
